In this assay the target is T1, house dust mite (Dermatophagoides pteronyssinus) allergen (Der-pl) (Dermatophagoides pteronyssinus, UniProt P08176).
T1 construct: Test dust had been obtained from household vacuum cleaner bags; from tissue; host or cells: house dust (British; vacuum cleaner bags), sieved fraction smaller than 53 microns
T1 sequence (P08176 99-320): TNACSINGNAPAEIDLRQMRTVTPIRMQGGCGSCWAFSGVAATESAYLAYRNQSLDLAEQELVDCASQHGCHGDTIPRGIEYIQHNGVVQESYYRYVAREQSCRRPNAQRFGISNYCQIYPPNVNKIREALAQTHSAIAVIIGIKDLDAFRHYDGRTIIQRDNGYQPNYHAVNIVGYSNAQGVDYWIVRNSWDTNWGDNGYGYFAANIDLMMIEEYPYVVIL
As to the kind of experiment: Example 3: test liquid sprayed onto dust in petri dish, Der-pl ELISA. The assay is classed as biochemical. As to the method: Dust was collected from vacuum cleaner bags and passed through a series of sieves down to 53 microns. Clean petri dishes were labeled with the chemical to be tested and lined with filter paper. 0.3 g of dust was added to each dish and spread evenly over the filter paper. 0.1 g of dust was then removed from the filter paper for a control sample. The remaining dust was then redistributed evenly over the filter paper. 2.4 g+/−0.2 g of test chemical was sprayed onto the dust sample. The dust sample was left open to the air until the filter paper was dry. The dust was collected into eppendorfs and the weight of dust recovered was measured. 1 ml of 1% Bovine Serum Albumin-Phosphate Buffered Saline-Tween (BSA-PBS-T) was added to the control samples. 1 ml of 5% BSA-PBS-T was added to the test samples. The samples were left overnight in the refrigerator and then centrifuged for 5 minutes at 13,000 rpm. The supernatant was pipetted into an eppendorf for assay by Der-pl ELISA.
The test liquids were: • Distilled water • 2% Tea Tree Oil in distilled water (plus 0.1% Tween) • 2% Citronella Oil in distilled water (plus 0.10% Tween) • 1% Thymol in distilled water (plus 0.8% Tween) • 2% Hinoki Oil in distilled water (plus 0.1% Tween) • 2% Tannic Acid
Five replicates were completed for each test liquid. The allergen content of the control for each replicate was compared with the test sample allergen. The percentage reductions in allergen between the control and the test were determined for each replicate.
A general note: ELISA stands for enzyme-linked immunosorbent assay.

`Cc1ccc(C(C)C)c(O)c1` [Thymol, 6-isopropyl-m-cresol]: the “allergen reduction more than the water alone tests” value (test liquid sprayed onto dust (2% Tea Tree Oil or 1% Thymol in distilled water plus Tween), average of five replicates, water alone 34.2%) worked out at 23.6%. Besides, the “significance of allergen reduction versus water tests” value (test liquid sprayed onto dust, t-test versus water) is “significant”.

The molecule `O=C(OC[C@H]1O[C@@H](OC(=O)c2cc(O)c(O)c(OC(=O)c3cc(O)c(O)c(O)c3)c2)[C@H](OC(=O)c2cc(O)c(O)c(OC(=O)c3cc(O)c(O)c(O)c3)c2)[C@@H](OC(=O)c2cc(O)c(O)c(OC(=O)c3cc(O)c(O)c(O)c3)c2)[C@@H]1OC(=O)c1cc(O)c(O)c(OC(=O)c2cc(O)c(O)c(O)c2)c1)c1cc(O)c(O)c(OC(=O)c2cc(O)c(O)c(O)c2)c1` [tannic acid] displayed an average allergen reduction (2% Tannic Acid sprayed onto dust, positive control, five replicates) of 99.15%.

(Values after patent US20070259055A1, “Method of deactivating dust mite allergens” (priority 2000, published 2007).)
